In paper PMC12811501, “A plant-derived antimicrobial peptide with multiple mechanisms of action exhibiting antibacterial and antibiofilm activities comparable to or superior to polymyxin B” (Current Research in Microbial Sciences, 2025):
Values after ≈ are worked out from the molar mass of the structure shown. Residues, ends and D or L forms follow the SMILES beside them.

Key:
[1] = tested on: mouse macrophage J774.2 cells; settings: cited from earlier work
A. baumannii = assay type: cell-based, Acinetobacter baumannii; settings: 8 h
Method: (§1) For serum stability test human blood was purchased from the Regional Blood Centre in Szeged (the use of human blood has been authorized by the Regional Hungarian Ethics Committee and approved by the Ethics Review Sector of DG RTD (European Commission) in connection with EK’s ERC AdG SymBiotics). The cells from 10 ml of EDTA-blood were centrifuged at 1500 × g for 1 min and washed several times in TBS buffer (10 mM Tris, pH: 7.2, 150 mM NaCl) until the supernatant, representing the serum, became colorless. The NCR169C17–38 peptide was added to the serum at 1:1 ratio and incubated at room temperature for 8 h. Subsequently, serial 2-fold dilutions of the peptide were prepared in PPB, with concentrations ranging from 100 to 0.2 µM and antimicrobial assay was done to determine the MBC values. Experiments were done in three biological replicates.

E. coli = assay type: cell-based, Escherichia coli; settings: 8 h
Method: as §1

Acinetobacter baumannii = assay: microbe, parasite or virus in culture; assay type: cell-based
Method: For the biofilm inhibition assay the antimicrobial activity test was done in 1/10 MHB using A. baumannii treated with the respective dilutions of NCR169C17–38, meropenem or polymixin B for 24 h. After taking the 5 μl samples at the end of the treatment and placed on LB agar to detect bacterial growth, the rest of the grown bacterial suspensions were discarded from the plate and the remaining biofilm on the walls of the plate was then washed three times with sterile water and stained using 1 % Crystal Violet (CV) for 15 min to visualize the produced biofilm. The non-adherent CV dye was then removed by washing with water three times. The plate was left for complete drying, then the biofilm-bound CV dye was dissolved in 200 µl of 30 % acetic-acid with shaking over 15 min. The absorbance was measured at OD550 using a HIDEX Plate Reader (Hidex Sense Microplate Reader with Plate Reader Software version 5064, Hidex, Finland). All measurements were repeated three times.
We examined the capacity of NCR169C17–38 to inhibit biofilm formation by Acinetobacter baumannii, a pathogen well known for its robust biofilm production and high level of antibiotic resistance. […] Additionally, at the end of the experiment we determined the quantity of the biofilm and thereby evaluated their ability to inhibit biofilm formation during culturing the bacteria in the presence of different concentrations of the agents (Fig. 1.A). We tested concentrations of NCR169C17–38 ranging from 25 μM to 0.4 μM, meropenem from 100 μM to 1.6 μM and polymyxin B from 3.1 μM to 0.05 μM.

E. coli genomic DNA = assay: Gel retardation assay; assay type: binding, Escherichia coli; settings: 100 ng E. coli genomic DNA, 10 or 100 µM peptide, 30 min at 37 °C
Method: (§2) The DNA- and RNA-binding abilities of NCR169C17–38, its parental peptide NCR169, and two shorter derivatives (NCR169_16–27 and NCR169_17–27) were initially evaluated using a gel retardation assay. In this setup, 100 ng of either E. coli genomic DNA or total RNA was incubated with 10 µM or 100 µM of each peptide for 30 min at 37 °C. Reaction mixtures, along with untreated controls, were then subjected to agarose gel electrophoresis, and the resulting nucleic acid migration patterns were examined for changes indicative of peptide binding. The interaction of NCR169C17–38 with circular plasmid DNA (pDEST-GBKT7) was also characterized using peptide concentrations ranging from 50 µM to 0.8 µM, prepared by 2-fold serial dilution. Experiments were done in three biological replicates.
(§3) To explore whether the NCR169C17–38 peptide has secondary intracellular targets of the bacterial cells beyond the primary membrane disruption, we tested its possible interaction with nucleic acids in gel retardation assays. A pilot experiment indicated strong DNA-binding capacity, prompting us to include the parental NCR169 peptide and the shorter derivatives NCR169_16–27 and NCR169_17–27 for comparison (Fig. 3.). […] Similar results were obtained with total E. coli RNA (Fig. 3.B). […]

E. coli total RNA = assay: Gel retardation assay; assay type: binding, Escherichia coli; settings: 100 ng E. coli total RNA, 10 or 100 µM peptide, 30 min at 37 °C
Method: as §2, §3

[2] = Liposome sedimentation assay; assay type: binding; settings: 20 μM peptide, 30 min room temperature, 200,000 × g, SDS-PAGE
Method: To prepare the liposomes, phospholipids DMPC and Cardiolipin purchased from Avanti Polar Lipids (Alabaster, AL, USA) were dissolved in Chloroform:Methanol:Water in the ratio of (65:25:4) and (73:23:3) respectively, and dried under vacuum for 1 h. The lipid film was suspended in the assay buffer (20 mM HEPES, 150 mM NaCl, pH 7.0), vortexed, and sonicated for 15 min to form the liposomes. The assay was carried out by incubating 2 mM of the liposomes with 20 μM of NCR169C17–38 peptide and incubated for 30 min at room temperature, followed by ultracentrifugation at 200,000 × g for 15 min at 20 °C. After centrifugation, the supernatant (sn) and pellet (p) fractions were collected separately and were subjected to glycine-SDS-PAGE. The peptides were detected by Coomassie Brilliant Blue staining.
Prepared liposomes were incubated with NCR169C17–38, then separated by ultracentrifugation. Peptide remaining in the supernatant (sn) fraction indicated no binding, whereas peptide detected in the pellet (p) fraction indicated liposome association.

## CC[C@H](C)[C@H](NC(=O)[C@H](CCCCN)NC(=O)[C@H](Cc1ccccc1)NC(=O)[C@H](CC(C)C)NC(=O)[C@@H]1CCCN1C(=O)[C@H](CCCCN)NC(=O)[C@H](CCCCN)NC(=O)[C@H](CO)NC(=O)[C@@H](N)CCCCN)C(=O)N[C@@H](Cc1c[nH]c2ccccc12)C(=O)N[C@@H](CCCCN)C(=O)N[C@@H](CS)C(=O)N[C@H](C(=O)N[C@@H](CCC(=O)O)C(=O)N[C@@H](CC(N)=O)C(=O)N[C@H](C(=O)N[C@@H](CS)C(=O)N[C@H](C(=O)N[C@@H](CC(C)C)C(=O)N[C@@H](Cc1c[nH]c2ccccc12)C(=O)N[C@@H](Cc1ccc(O)cc1)C(=O)N[C@@H](CCCCN)C(N)=O)C(C)C)C(C)C)C(C)C [NCR169C17–38] (H-KSKKPLFKIWKCVENVCVLWYK-NH2; N-terminus assumed)
[1]
  cytotoxicity: non-cytotoxic
A. baumannii
  MBC after pre-incubation in human serum: 6.3 µM (≈ 17.3 µg/mL)
E. coli
  MBC after pre-incubation in human serum: 3.1 µM (≈ 8.49 µg/mL)
Acinetobacter baumannii; 24 h, read-out: MBC, Inhibition test after 24 h
  MBC: 6.3 µM (≈ 17.3 µg/mL)
Acinetobacter baumannii; A. baumannii, 24 h treatment, NCR169C17–38 25-0.4 μM, meropenem 100-1.6 μM, polymyxin B 3.1-0.05 μM
  inhibition of biofilm formation (Crystal Violet, OD550): remaining effective even at lower doses
E. coli genomic DNA
  DNA binding, gel retardation: completely preventing DNA migration from the well at the lower concentration
E. coli total RNA
  RNA binding, gel retardation: completely blocked RNA migration at high concentrations
[2]; 2 mM Cardiolipin liposomes
  liposome binding: bound strongly
[2]; 2 mM DMPC liposomes
  liposome binding: no binding
